Reference: US9522163B2, “Methods of treating hepatitis” (priority 2002, dated 2016)

Columns and labels:
iNOS = assay: Liver iNOS expression (immunoblot, immunostaining); format: in vivo, mice
Description: Western blot analysis was performed on primary hepatocytes in culture or from liver homogenates with antibodies to iNOS (Transduction Laboratories, Lexington, Ky.; 1:1000), HO-1 (Calbiochem; 1:2000), or β-actin (Sigma Chemical; 1:5000). Thirty μg protein in cell culture experiments or 100 μg protein from liver homogenates was loaded per well for SDS-PAGE.
For histology and immunohistochemistry, livers were fixed in 2% paraformaldehyde and then snap frozen in liquid nitrogen. Livers were then sectioned (7 microns thick) and stained with hematoxylin and eosin (H&E). Liver sections were also stained for TUNEL and activated caspase-3 using kits according to the manufacturer's instructions (Promega). Sections for iNOS immunocytochemistry were blocked with 5% goat serum containing 0.2% bovine serum albumin. Thereafter, sections were incubated for 1 hour at room temperature with anti-iNOS antibody (Transduction Laboratories; 1:300), then washed and probed with a secondary antibody conjugated to Alexa-488 (Molecular Probes, Eugene, Oreg.). Nuclei were stained with Hoechst dye. Images were acquired using an Olympus Provus microscope. Hepatocytes in culture were plated on gelatinized coverslips, stimulated as indicated, and then fixed in 2% paraformaldehyde containing 0.1% Triton X-100. […]

NF-κB = NF-κB luciferase reporter assay in hepatocytes; format: cell-based, mouse; settings: CO 250 ppm; reporter activity peaked one hour after placing cells in CO
Description: In some experiments, gene transfer of an IκBα superrepressor (Hellerbrand et al., Hepatology 27:1285-1295 (1998)) or β-galactosidase using adenoviral vectors (10 pfu/cell) was performed 12 hours prior to TNF-α/ActD treatment. NF-κB activation was evaluated using a luciferase reporter assay as described in Chow et al. (J. Biol. Chem. 274: 10689-10692 (1999)). Briefly, hepatocytes were co-transfected with NF-κB reporter constructs (pGL3-kappaβ luciferase, 100 ng/well; and pIEP-Lac-z 0.5 μg/well) using Lipofectin™ (Invitrogen, Carlsbad, Calif.) as instructed by the manufacturer. Evaluation of iNOS expression was performed using a luciferase reporter assay as described in Lowenstein et al. (Proc. Natl. Acad. Sci. U.S.A 90: 9730-9734 (1993)). Briefly, hepatocytes were co-transfected with iNOS promoter reporter constructs (pXP2; 1 μg/well) and pIEP-LacZ (0.5 μg/well) as described above.
Hepatocytes were transfected with plasmids as described above and treated with various stimuli 24 hours after transfection. […] Results were corrected for transfection efficiency and protein concentration.
To generate the data presented in FIG. 4, evaluation of NF-κB activation was performed using a luciferase reporter assay as described in Chow et al. (J. Biol. Chem. 274: 10689-10692 (1999)). […]

Q: What does the source list for [C-]#[O+] [CO, carbon monoxide]?
A: Liver iNOS expression (iNOS; CO 250 ppm 1 hr prior to TNF-α/D-gal, livers six hours later): markedly increased; Liver iNOS expression, CO without TNF-α/D-gal (iNOS; immunostaining): modest increase; NF-κB activation (luciferase reporter, EMSA, immunostaining) (NF-κB): moderate increase
